Legend:
[1] = biological target: Receptor tyrosine-protein kinase erbB-2 (Homo sapiens, UniProt P04626); assay: Inhibition of N-terminal GST-tagged human HER2 (Lys676 to Val1255 residues) expressed in baculovirus expression system using biotinylated FLT3 at Tyr589 as substrate preincubated for 5 mins followed by substrate addition measured after 30 mins by DELFIA method
[2] = biological target: Epidermal growth factor receptor (Homo sapiens, UniProt P00533); assay: Inhibition of N-terminal GST-fused human EGFR (His672 to Ala1210 residues) expressed in baculovirus expression system using biotinylated PTP1B at Tyr66 as substrate preincubated for 5 mins followed by substrate addition measured after 30 mins by DELFIA
[3] = biological target: Vascular endothelial growth factor receptor 2 (Homo sapiens, UniProt P35968); assay: Inhibition of N-terminal GST-His6-thrombin cleavage site-fused human VEGFR2 (Asp805 to Val1356 residues) expressed in baculovirus expression system using biotinylated gastrin precursor at Tyr87 as substrate preincubated for 5 mins followed by substrate addition measured after 30 mins by DELFIA method
[4] = biological target: Platelet-derived growth factor receptor beta (Homo sapiens, UniProt P09619); assay: Inhibition of N-terminal GST-His6-thrombin cleavage site-fused human PDGFRbeta (Arg561 to Leu1106 residues) assessed as decrease in biotinylated FLT3 phosphorylation at Tyr589 preincubated for 5 mins followed by substrate addition measured after 30 mins by DELFIA method
[5] = biological target: Tyrosine-protein kinase ABL1 (Homo sapiens, UniProt P00519); assay: (§1) Inhibition of human N-terminal GST-tagged human Abl1 (Pro118 to Ser553 residues) expressed in baculovirus expression system assessed as decrease in biotin signal transduction protein phosphorylation at Tyr160 preincubated for 5 mins followed by substrate addition measured after 30 mins by DELFIA method
[6] = biological target: Proto-oncogene tyrosine-protein kinase Src (Homo sapiens, UniProt P12931); assay: as §1, with “GST-tagged full length” for “GST-tagged”, “Src (Met1” for “Abl1 (Pro118”, “Leu536” for “Ser553”
Chain of Proto-oncogene tyrosine-protein kinase Src (P12931 2-536 limits assumed): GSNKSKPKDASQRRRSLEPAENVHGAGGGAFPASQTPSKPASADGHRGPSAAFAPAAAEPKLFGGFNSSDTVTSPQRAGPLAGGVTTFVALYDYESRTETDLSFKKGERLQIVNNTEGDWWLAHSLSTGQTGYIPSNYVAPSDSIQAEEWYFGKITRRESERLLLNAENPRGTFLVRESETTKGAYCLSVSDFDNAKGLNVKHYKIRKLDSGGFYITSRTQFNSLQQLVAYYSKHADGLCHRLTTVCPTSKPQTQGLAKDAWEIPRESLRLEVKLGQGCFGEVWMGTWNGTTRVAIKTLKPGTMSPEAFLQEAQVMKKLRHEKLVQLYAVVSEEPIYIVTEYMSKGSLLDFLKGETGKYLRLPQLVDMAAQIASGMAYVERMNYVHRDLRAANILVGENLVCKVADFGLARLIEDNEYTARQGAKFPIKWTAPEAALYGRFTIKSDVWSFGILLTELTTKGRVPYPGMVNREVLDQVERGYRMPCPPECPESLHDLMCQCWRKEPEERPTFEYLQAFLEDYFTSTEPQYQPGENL

Chain of Vascular endothelial growth factor receptor 2 (P35968 whole entry, the tested form may be a part): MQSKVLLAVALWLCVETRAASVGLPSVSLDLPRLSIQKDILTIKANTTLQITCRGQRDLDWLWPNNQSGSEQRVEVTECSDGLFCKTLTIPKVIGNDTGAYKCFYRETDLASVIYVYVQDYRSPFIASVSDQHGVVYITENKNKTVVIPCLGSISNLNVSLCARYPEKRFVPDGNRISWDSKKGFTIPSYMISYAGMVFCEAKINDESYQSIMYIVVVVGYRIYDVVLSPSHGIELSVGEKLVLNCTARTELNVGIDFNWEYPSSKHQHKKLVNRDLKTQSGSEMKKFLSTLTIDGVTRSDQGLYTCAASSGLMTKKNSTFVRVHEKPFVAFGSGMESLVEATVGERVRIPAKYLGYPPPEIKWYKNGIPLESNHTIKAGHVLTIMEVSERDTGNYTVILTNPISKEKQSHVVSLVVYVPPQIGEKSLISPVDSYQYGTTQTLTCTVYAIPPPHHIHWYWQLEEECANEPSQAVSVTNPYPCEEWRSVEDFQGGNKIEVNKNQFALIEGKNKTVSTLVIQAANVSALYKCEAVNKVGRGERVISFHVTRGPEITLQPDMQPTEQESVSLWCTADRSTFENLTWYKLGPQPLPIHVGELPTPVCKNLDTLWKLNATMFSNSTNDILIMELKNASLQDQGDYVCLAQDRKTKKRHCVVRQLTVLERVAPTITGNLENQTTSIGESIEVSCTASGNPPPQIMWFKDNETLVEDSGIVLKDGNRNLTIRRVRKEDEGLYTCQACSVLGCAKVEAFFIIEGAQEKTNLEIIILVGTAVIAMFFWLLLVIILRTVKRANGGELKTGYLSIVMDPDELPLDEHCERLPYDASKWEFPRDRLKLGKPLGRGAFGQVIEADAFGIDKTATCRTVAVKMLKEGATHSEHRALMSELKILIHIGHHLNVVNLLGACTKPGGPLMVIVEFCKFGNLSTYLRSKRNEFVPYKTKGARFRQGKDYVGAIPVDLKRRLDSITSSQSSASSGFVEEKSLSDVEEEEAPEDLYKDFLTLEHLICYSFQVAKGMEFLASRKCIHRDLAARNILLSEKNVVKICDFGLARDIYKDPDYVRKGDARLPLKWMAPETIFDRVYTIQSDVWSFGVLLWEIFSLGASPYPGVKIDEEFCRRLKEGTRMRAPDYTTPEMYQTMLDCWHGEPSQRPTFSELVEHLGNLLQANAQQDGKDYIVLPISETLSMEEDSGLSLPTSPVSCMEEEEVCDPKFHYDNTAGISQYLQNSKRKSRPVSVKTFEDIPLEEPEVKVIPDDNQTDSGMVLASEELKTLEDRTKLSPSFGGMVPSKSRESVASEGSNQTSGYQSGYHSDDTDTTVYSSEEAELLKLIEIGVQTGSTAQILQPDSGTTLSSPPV
Chain of Tyrosine-protein kinase ABL1 (P00519 whole entry): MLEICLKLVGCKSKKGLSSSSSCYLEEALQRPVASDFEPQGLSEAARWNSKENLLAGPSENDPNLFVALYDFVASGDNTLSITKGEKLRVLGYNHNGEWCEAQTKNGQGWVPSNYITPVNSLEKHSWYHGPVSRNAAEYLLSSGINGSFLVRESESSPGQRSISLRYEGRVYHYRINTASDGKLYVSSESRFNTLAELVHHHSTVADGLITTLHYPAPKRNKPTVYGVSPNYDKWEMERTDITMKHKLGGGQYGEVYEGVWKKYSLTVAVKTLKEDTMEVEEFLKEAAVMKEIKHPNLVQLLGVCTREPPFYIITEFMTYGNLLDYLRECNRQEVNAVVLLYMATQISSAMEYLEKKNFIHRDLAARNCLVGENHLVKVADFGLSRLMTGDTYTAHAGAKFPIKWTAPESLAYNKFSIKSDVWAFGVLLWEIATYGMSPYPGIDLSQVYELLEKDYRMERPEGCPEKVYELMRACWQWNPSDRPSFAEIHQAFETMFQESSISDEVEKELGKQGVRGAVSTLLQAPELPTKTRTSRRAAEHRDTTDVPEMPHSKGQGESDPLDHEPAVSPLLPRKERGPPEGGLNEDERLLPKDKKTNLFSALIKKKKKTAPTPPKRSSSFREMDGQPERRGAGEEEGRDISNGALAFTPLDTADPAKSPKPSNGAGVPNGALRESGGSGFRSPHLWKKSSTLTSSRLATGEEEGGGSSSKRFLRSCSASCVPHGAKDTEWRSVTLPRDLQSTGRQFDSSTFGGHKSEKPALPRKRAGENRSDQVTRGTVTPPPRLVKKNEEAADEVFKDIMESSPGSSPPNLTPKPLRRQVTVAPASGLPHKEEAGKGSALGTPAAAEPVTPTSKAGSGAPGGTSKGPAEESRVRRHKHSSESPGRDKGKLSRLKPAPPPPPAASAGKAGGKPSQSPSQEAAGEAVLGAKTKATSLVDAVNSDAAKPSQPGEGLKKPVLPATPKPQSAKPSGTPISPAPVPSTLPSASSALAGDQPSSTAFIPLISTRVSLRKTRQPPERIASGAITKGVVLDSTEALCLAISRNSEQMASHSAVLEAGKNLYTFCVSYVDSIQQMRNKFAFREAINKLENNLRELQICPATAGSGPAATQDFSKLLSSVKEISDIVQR
Chain of Platelet-derived growth factor receptor beta (P09619 whole entry, the tested form may be a part): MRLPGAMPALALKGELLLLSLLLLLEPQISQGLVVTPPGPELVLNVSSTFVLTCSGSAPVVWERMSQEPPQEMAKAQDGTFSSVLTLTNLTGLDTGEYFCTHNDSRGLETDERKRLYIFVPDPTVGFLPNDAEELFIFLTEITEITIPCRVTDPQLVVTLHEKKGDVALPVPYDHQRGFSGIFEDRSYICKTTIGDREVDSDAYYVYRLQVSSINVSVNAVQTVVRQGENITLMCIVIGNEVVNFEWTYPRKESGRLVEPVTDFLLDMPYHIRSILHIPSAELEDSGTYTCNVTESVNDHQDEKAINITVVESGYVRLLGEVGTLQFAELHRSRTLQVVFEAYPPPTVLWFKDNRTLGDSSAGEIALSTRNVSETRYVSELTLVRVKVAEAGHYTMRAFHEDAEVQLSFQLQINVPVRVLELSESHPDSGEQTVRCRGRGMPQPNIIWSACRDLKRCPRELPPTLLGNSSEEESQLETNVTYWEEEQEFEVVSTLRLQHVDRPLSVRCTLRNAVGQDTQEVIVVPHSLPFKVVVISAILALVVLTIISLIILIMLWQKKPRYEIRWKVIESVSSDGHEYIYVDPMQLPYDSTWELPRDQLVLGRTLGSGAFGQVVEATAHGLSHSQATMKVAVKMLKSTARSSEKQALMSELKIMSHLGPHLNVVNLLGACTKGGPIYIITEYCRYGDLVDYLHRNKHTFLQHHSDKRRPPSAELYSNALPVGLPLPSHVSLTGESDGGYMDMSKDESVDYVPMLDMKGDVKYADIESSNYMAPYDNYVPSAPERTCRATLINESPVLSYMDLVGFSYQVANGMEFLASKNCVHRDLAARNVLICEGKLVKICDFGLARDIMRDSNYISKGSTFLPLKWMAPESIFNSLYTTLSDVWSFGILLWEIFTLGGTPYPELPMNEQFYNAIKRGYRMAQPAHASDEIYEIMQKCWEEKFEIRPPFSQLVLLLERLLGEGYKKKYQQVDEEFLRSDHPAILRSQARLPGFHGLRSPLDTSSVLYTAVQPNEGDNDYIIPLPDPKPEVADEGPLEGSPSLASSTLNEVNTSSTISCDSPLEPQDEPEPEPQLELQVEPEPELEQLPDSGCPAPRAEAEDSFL

| SMILES | IC50 [1] [µM] | IC50 [2] [µM] | IC50 [3] [µM] | IC50 [4] [µM] | IC50 [5] [µM] | IC50 [6] [µM] |
| --- | --- | --- | --- | --- | --- | --- |
| C#Cc1cccc(Nc2ncnc3cc(OC)c(OCC(=O)NO)cc23)c1 | ≤ 0.1 |  |  |  |  |  |
| C[C@@H](Nc1ncnc2[nH]c(-c3ccc(CN4CCN(CCC(=O)NO)CC4)cc3)cc12)c1ccccc1 | ≤ 0.1 | ≤ 0.1 | 0.1 to 1 |  |  |  |
| C[C@@H](Nc1ncnc2[nH]c(-c3ccc(CNCC(=O)NO)cc3)cc12)c1ccccc1 | 1 to 10 | 1 to 10 |  |  |  |  |
| O=C(CCCCCCCNCc1cc(Oc2ccc(NC(=O)Nc3ccc(Cl)c(C(F)(F)F)c3)cc2)ccn1)NO |  |  | 0.1 to 1 |  |  |  |
| COc1cc2ncnc(Nc3ccc(OCc4cccc(F)c4)c(Cl)c3)c2cc1OCCCCCCC(=O)NO | ≤ 0.1 |  |  |  |  |  |
| O=C(CCCC(=O)NCc1cc(Oc2ccc(NC(=O)Nc3ccc(Cl)c(C(F)(F)F)c3)cc2)ccn1)NO |  |  | ≤ 0.1 |  |  |  |
| C#Cc1cccc(Nc2ncnc3cc(OC)c(NC(=O)CCCCCCC(=O)NO)cc23)c1 | 0.1 to 1 |  |  |  |  |  |
| C[C@@H](Nc1ncnc2[nH]c(-c3ccc(NCCCCCCC(=O)NO)cc3)cc12)c1ccccc1 | ≤ 0.1 | ≤ 0.1 | 0.1 to 1 |  |  |  |
| COc1cc2c(Nc3ccc(F)c(Cl)c3)ncnc2cc1OCCCCCCC(=O)NO | 0.1 to 1 |  |  |  |  |  |
| C[C@@H](Nc1ncnc2[nH]c(-c3ccc(CN4CCN(CCCCCC(=O)NO)CC4)cc3)cc12)c1ccccc1 | 0.1 to 1 |  | 0.1 to 1 |  |  |  |
| C[C@@H](Nc1ncnc2[nH]c(-c3ccc(NC(=O)CCCC(=O)NO)cc3)cc12)c1ccccc1 | 0.1 to 1 | ≤ 0.1 | 0.1 to 1 |  |  |  |
| Cc1[nH]c(/C=C2\C(=O)Nc3ccc(F)cc32)c(C)c1C(=O)NCCCCCC(=O)N(C)O |  |  | ≤ 0.1 |  |  |  |
| C[C@@H](Nc1ncnc2[nH]c(-c3ccc(CNCc4ccc(C(=O)NO)cc4)cc3)cc12)c1ccccc1 | 0.1 to 1 | ≤ 0.1 | 0.1 to 1 |  |  |  |
| C[C@@H](Nc1ncnc2c1cc(-c1ccc(C(=O)NCCNCCCCCCC(=O)NO)cc1)n2C)c1ccccc1 | 0.1 to 1 |  | 1 to 10 |  |  |  |
| C[C@@H](Nc1ncnc2[nH]c(-c3ccc(OCCNCCCCCCC(=O)NO)cc3)cc12)c1ccccc1 | ≤ 0.1 | ≤ 0.1 | ≤ 0.1 |  |  |  |
| Cc1[nH]c(/C=C2\C(=O)Nc3ccc(F)cc32)c(C)c1C(=O)NCCOc1ccc(/C=C/C(=O)NO)cc1 |  |  | ≤ 0.1 |  |  |  |
| C[C@@H](Nc1ncnc2[nH]c(-c3ccc(OCCCCCCC(=O)NO)cc3)cc12)c1ccccc1 | 0.1 to 1 | ≤ 0.1 | ≤ 0.1 |  |  |  |
| Cc1[nH]c(/C=C2\C(=O)Nc3ccc(F)cc32)c(C)c1C(=O)NCCCCCC(=O)NO |  |  | ≤ 0.1 | ≤ 0.1 |  |  |
| O=C(CCCCOc1cc(Oc2ccc(NC(=O)Nc3ccc(Cl)c(C(F)(F)F)c3)cc2)ccn1)NO |  |  | ≤ 0.1 |  |  |  |
| C[C@@H](Nc1ncnc2[nH]c(-c3ccc(CN4CCN(CCCCC(=O)NO)CC4)cc3)cc12)c1ccccc1 | 0.1 to 1 | ≤ 0.1 | 0.1 to 1 |  |  |  |
| C[C@@H](Nc1ncnc2[nH]c(-c3ccc(OCC(=O)NO)cc3)cc12)c1ccccc1 | ≤ 0.1 | ≤ 0.1 | 1 to 10 |  |  |  |
| C[C@@H](Nc1ncnc2[nH]c(-c3ccc(NC(=O)CCCCCCC(=O)NO)cc3)cc12)c1ccccc1 | 0.1 to 1 | ≤ 0.1 | 0.1 to 1 |  |  |  |

| SMILES | IC50 [1] [µM] | IC50 [2] [µM] | IC50 [3] [µM] | IC50 [4] [µM] | IC50 [5] [µM] | IC50 [6] [µM] |
| --- | --- | --- | --- | --- | --- | --- |
| C#Cc1cccc(Nc2ncnc3cc(OCCCCCCC(=O)NO)c(OC)cc23)c1 | 0.1 to 1 |  |  |  |  |  |
| Cc1nc(N)cc(N(CC(=O)NO)c2ncc(C(=O)Nc3c(C)cccc3Cl)s2)n1 |  |  |  |  | 0.1 to 1 | 0.1 to 1 |
| C[C@@H](Nc1ncnc2[nH]c(-c3ccc(CNCCCCCC(=O)NO)cc3)cc12)c1ccccc1 | 0.1 to 1 | ≤ 0.1 | 0.1 to 1 |  |  |  |
| Cc1[nH]c(/C=C2\C(=O)Nc3ccc(F)cc32)c(C)c1C(=O)NCCCCCCCC(=O)NO |  |  | ≤ 0.1 | 0.1 to 1 |  |  |
| C[C@@H](Nc1ncnc2[nH]c(-c3ccc(OCCCC(=O)NO)cc3)cc12)c1ccccc1 | 0.1 to 1 | ≤ 0.1 | 0.1 to 1 |  |  |  |
| C[C@@H](Nc1ncnc2[nH]c(-c3ccc(NCc4ccc(C(=O)NO)cc4)cc3)cc12)c1ccccc1 | 0.1 to 1 | ≤ 0.1 | 1 to 10 |  |  |  |
| Cc1nc(Nc2ncc(C(=O)Nc3c(C)cccc3Cl)s2)cc(N2CCN(CC(=O)NO)CC2)n1 |  |  |  | ≤ 0.1 | ≤ 0.1 | ≤ 0.1 |
| COc1cc2ncnc(Nc3ccc(F)c(Cl)c3)c2cc1OCCCCCCC(=O)NO | ≤ 0.1 | 0.0031 | 0.1 to 1 |  |  |  |
| C[C@@H](Nc1ncnc2[nH]c(-c3ccc(CN4CCC(NCCCCCCCC(=O)NO)CC4)cc3)cc12)c1ccccc1 | ≤ 0.1 |  |  |  |  |  |
| COc1cc2ncnc(Nc3ccc(F)c(Cl)c3)c2cc1SCCCCCCC(=O)NO | ≤ 0.1 |  |  |  |  |  |
| C[C@@H](Nc1ncnc2[nH]c(-c3ccc(NC(=O)CCCCC(=O)NO)cc3)cc12)c1ccccc1 | 0.1 to 1 | ≤ 0.1 | 0.1 to 1 |  |  |  |
| COc1cc2ncnc(Nc3ccc(F)c(Cl)c3)c2cc1SCCCCC(=O)NO | ≤ 0.1 |  |  |  |  |  |
| O=C(CCCCCCOc1ccc2ncnc(Nc3ccc(OCc4cccc(F)c4)c(Cl)c3)c2c1)NO | ≤ 0.1 |  |  |  |  |  |
| O=C(CCCCCCOc1ccc(-c2cc3c(NCc4ccccc4)ncnc3[nH]2)cc1)NO | 1 to 10 | 0.1 to 1 | 1 to 10 |  |  |  |
| C[C@@H](Nc1ncnc2[nH]c(-c3ccc(OCCCCCCC(=O)NO)cc3)cc12)c1ccc(F)cc1 | 0.1 to 1 | 0.1 to 1 | 1 to 10 |  |  |  |
| Cc1[nH]c(/C=C2\C(=O)Nc3ccc(F)cc32)c(C)c1C(=O)NCCCCCCC(=O)NO |  |  | ≤ 0.1 | 0.1 to 1 |  |  |
| C[C@@H](Nc1ncnc2[nH]c(-c3ccc(OCCNCCCCCCCC(=O)NO)cc3)cc12)c1ccccc1 | ≤ 0.1 |  |  |  |  |  |
| C[C@@H](Nc1ncnc2[nH]c(-c3ccc(C(=O)NCCNCCCCCC(=O)NO)cc3)cc12)c1ccccc1 | 0.1 to 1 | ≤ 0.1 | 0.1 to 1 |  |  |  |
| C[C@@H](Nc1ncnc2[nH]c(-c3ccc(CN4CCN(CCCCCCC(=O)NO)CC4)cc3)cc12)c1ccccc1 | ≤ 0.1 | ≤ 0.1 | 0.1 to 1 |  |  |  |
| C[C@@H](Nc1ncnc2[nH]c(-c3ccc(C(=O)NCCNCCCCCCC(=O)NO)cc3)cc12)c1ccccc1 | 0.1 to 1 | ≤ 0.1 | 0.1 to 1 |  |  |  |
| C[C@@H](Nc1ncnc2[nH]c(-c3ccc(NC(=O)CCC(=O)NO)cc3)cc12)c1ccccc1 | 0.1 to 1 | ≤ 0.1 | 0.1 to 1 |  |  |  |
| Cc1nc(Nc2ncc(C(=O)Nc3c(C)cccc3Cl)s2)cc(N2CCN(CCCC(=O)NO)CC2)n1 |  |  |  |  | ≤ 0.1 | ≤ 0.1 |

| SMILES | IC50 [1] [µM] | IC50 [2] [µM] | IC50 [3] [µM] | IC50 [4] [µM] | IC50 [5] [µM] | IC50 [6] [µM] |
| --- | --- | --- | --- | --- | --- | --- |
| O=C(CCCCCCNCc1cc(Oc2ccc(NC(=O)Nc3ccc(Cl)c(C(F)(F)F)c3)cc2)ccn1)NO |  |  | 0.1 to 1 |  |  |  |
| C#Cc1cc(Nc2ncnc3cc(OC)c(OCCCCCCC(=O)NO)cc23)ccc1O | ≤ 0.1 |  |  |  |  |  |
| C[C@@H](Nc1ncnc2[nH]c(-c3ccc(OCCCCC(=O)NO)cc3)cc12)c1ccccc1 | 0.1 to 1 | ≤ 0.1 | 0.1 to 1 |  |  |  |
| C[C@@H](Nc1ncnc2[nH]c(-c3ccc(CNCCCCCCC(=O)NO)cc3)cc12)c1ccccc1 | 0.1 to 1 | ≤ 0.1 | 0.1 to 1 |  |  |  |
| C[C@@H](Nc1ncnc2[nH]c(-c3ccc(NCc4ccc(/C=C/C(=O)NO)cc4)cc3)cc12)c1ccccc1 |  | ≤ 0.1 | 1 to 10 |  |  |  |
| C[C@@H](Nc1ncnc2[nH]c(-c3ccc(OCCCCCC(=O)NO)cc3)cc12)c1ccccc1 | 0.1 to 1 | ≤ 0.1 | 1 to 10 |  |  |  |
| C#Cc1cccc(Nc2ncnc3cc(OCCCCCCC(=O)NO)c(OCCOC)cc23)c1 | 0.1 to 1 |  |  |  |  |  |
| C[C@@H](Nc1ncnc2[nH]c(-c3ccc(NCCCCCC(=O)NO)cc3)cc12)c1ccccc1 | ≤ 0.1 | ≤ 0.1 | ≤ 0.1 |  |  |  |
| COCCOc1cc2ncnc(Nc3ccc(F)c(Cl)c3)c2cc1OCCCCCCC(=O)NO | 0.1 to 1 |  |  |  |  |  |
| Cc1[nH]c(/C=C2\C(=O)Nc3ccc(F)cc32)c(C)c1C(=O)NCCCC(=O)NO |  |  | ≤ 0.1 | ≤ 0.1 |  |  |
| Cc1nc(NCCNCC(=O)NO)cc(Nc2ncc(C(=O)Nc3c(C)cccc3Cl)s2)n1 |  |  |  |  | ≤ 0.1 | ≤ 0.1 |
| C[C@@H](Nc1ncnc2[nH]c(-c3ccc(C(=O)NCCNCCC(=O)NO)cc3)cc12)c1ccccc1 | 0.1 to 1 | ≤ 0.1 | 0.1 to 1 |  |  |  |
| O=C(CCCC(=O)Nc1cc(Oc2ccc(NC(=O)Nc3ccc(Cl)c(C(F)(F)F)c3)cc2)ccn1)NO |  |  | ≤ 0.1 |  |  |  |
| C[C@@H](Nc1ncnc2[nH]c(-c3ccc(CN4CCN(CCCC(=O)NO)CC4)cc3)cc12)c1ccccc1 | ≤ 0.1 | ≤ 0.1 | 0.1 to 1 |  |  |  |
| C[C@@H](Nc1ncnc2[nH]c(-c3ccc(CNCc4ccc(/C=C/C(=O)NO)cc4)cc3)cc12)c1ccccc1 | ≥ 10 | ≥ 10 | ≥ 10 |  |  |  |
| C[C@@H](Nc1ncnc2[nH]c(-c3ccc(C(=O)NO)cc3)cc12)c1ccccc1 | ≤ 0.1 | ≤ 0.1 | 0.1 to 1 |  |  |  |
| O=C(Nc1ccc(Oc2ccnc(C(=O)NO)c2)cc1)Nc1ccc(Cl)c(C(F)(F)F)c1 |  |  | 1 to 10 |  |  |  |
| O=C(CCCCCNCc1ccc(-c2ccc3ncnc(Nc4ccc(OCc5cccc(F)c5)c(Cl)c4)c3c2)o1)NO | ≤ 0.1 |  |  |  |  |  |
| COCCOc1cc2c(Nc3ccc(F)c(Cl)c3)ncnc2cc1OCCCCCCC(=O)NO | 0.1 to 1 |  |  |  |  |  |
| O=C(CCCCCN1CCN(Cc2ccc(-c3cc4c(NCc5ccccc5)ncnc4[nH]3)cc2)CC1)NO | 0.1 to 1 | 0.1 to 1 | 0.1 to 1 |  |  |  |

Source: ChEMBL document CHEMBL3881527, “Multi-functional small molecules as anti-proliferative agents” (2008)
